Results from patent US11103523B2, “Self-assembled brush block copolymer-nanoparticles for drug delivery” (UNIVERSITY OF CONNECTICUT, priority 2013, dated 2021).

What was measured:
HeLa cells [1] = assay: Intracellular uptake in HeLa cells (confocal microscopy and flow cytometry); type: cell-based, human; settings: 25 μg/mL DOX equivalents
Protocol: To observe the cellular uptake, HeLa cells were seeded at a density of 1.0×10^5 cells/well in an 8-well chamber of a Lab-Tek II chamber slide and pre-incubated for 24 h at 37° C. and 5% CO2. Serum-free DMEM containing free DOX and DOX-NPs at equivalent doses (25 μg/mL) was added to each well, followed by incubation for 2 h at 37° C. The cells were then rinsed with PBS, stained with 10 μM Draq5 and fixed with 4% formaldehyde solution for 10 min. Cover glasses were then placed on glass slides. The cellular uptake of free DOX and DOX-NPs was imaged by confocal laser scanning microscopy (Leica, England) at an excitation wavelength of 488 nm for DOX and 633 nm for Draq5.
To quantify cellular uptake, HeLa cells (5×10^5 cells/well) in 0.5 mL were grown on a 24-well plate at 37° C. in a humidified atmosphere of 5% CO2 for 24 h. Serum-free DMEM containing free DOX and DOX-NPs at equivalent doses (25 μg/mL) was added to the cells which were subsequently incubated for 2 h. The cells were then washed three times with PBS, harvested by trypsinization and transferred into Fluorescence Activated Cell Sorter (FACS) tubes. All samples were analyzed by flow cytometry (FACSCalibur, BD Biosciences, San Jose, Calif.) to determine cellular internalization. Fluorescence measurements of intracellular DOX were performed in the FL2 channel.

[2] = Tissue distribution of DOX in A549 tumor-bearing SCID mice; type: in vivo; settings: 24 h after i.v. 2.5 mg/kg equivalent DOX
Protocol: For the tissue distribution study, tumor-bearing severe combined immunodeficient (SCID) between 6 and 8 weeks-old mice were inoculated with 0.1 mL PBS containing 2×10^6 human lung cancer cells (A549) into the right flank. […] Twenty four hours after injection, mice were sacrificed for blood and organ collection including tumor, liver, spleen, kidney, lung, and heart. Tissues were then weighed and homogenized in the lysis buffer (0.1 M Tris-HCl, 2 mM EDTA, 0.1% Triton X-100) using a probe sonicator (Qsonica LLC, CT). The lysate of each tissue was centrifuged at 14,000 rpm for 20 min at 4° C. The blood was centrifuged at 3000 rpm for 10 min at 4° C.

HeLa cells [3] = assay: Cytotoxicity in HeLa cells, MTT; settings: all DOX concentrations (1-50 μg/mL), 24 h
Protocol: HeLa cells (7500 cells/well) were seeded on 96-well plates and cultured in 200 μL of DMEM supplemented with 10% FBS, 1% antibiotics, and 1% L-glutamine for 24 h at 37° C. and 5% CO2. After incubation, various concentrations of the blank nanoparticles (0.2-1 mg/mL), DOX-NPs, and free DOX (1-50 μg/mL of DOX equivalents) dissolved in DMEM without supplements were added. After 24 h of incubation with free DOX and DOX-NPs, and 48 h with blank nanoparticles, cytotoxicity was determined using 3-[4,5-dimethylthiazol-2-yl]-3,5-diphenyltetrazolium bromide dye (MTT dye, final concentration of 0.5 mg/mL) uptake at 540 nm on a microplate reader (Tecan group Ltd., Mannedorf, Switzerland).

A549 cells = assay: Antitumor activity and systemic toxicity in SCID mice bearing subcutaneous A549 tumors; type: in vivo
Protocol: The antitumor efficacy of DOX and DOX-NPs was evaluated in SCID mice inoculated subcutaneously in the right flank with 0.1 mL PBS containing 2×10^6 A549 cells. When the tumors grew to approximately 20-30 mm^3 (9 days after tumor implantation), the mice were randomly divided into three groups (n=5-6), and this day was designated as day 0. The mice were injected intravenously twice a week via tail vein with saline (control), free DOX and DOX-NPs (100 μL) at 2.5 mg/kg of equivalent DOX. Antitumor activity was evaluated in terms of tumor volume which was calculated using the following equation: Tumor volume (mm^3)=width^2×length/2. The body weight was measured simultaneously as an indicator of the systemic toxicity.

[4] = 2.5 mg/kg equivalent DOX, tumor-bearing SCID mice

## COc1cccc2c1C(=O)c1c(O)c3c(c(O)c1C2=O)C[C@@](O)(C(=O)CO)C[C@@H]3O[C@H]1C[C@H](N)[C@H](O)[C@H](C)O1 [free DOX, doxorubicin]
HeLa cells [1]; 2 h
  mean fluorescence intensity (flow cytometry): greater fluorescence intensity than those treated with DOX-NPs
HeLa cells [1]; 2 h of incubation
  intracellular distribution of DOX fluorescence (CLSM): strong red color in the nuclei
[2]
  tissue with greatest / lowest concentration of DOX: greatest in the liver and lowest in the tumor
HeLa cells [3]
  cytotoxicity comparison: significantly higher cytotoxicity than DOX-NPs
A549 cells; 2.5 mg/kg equivalent DOX i.v. twice a week
  effect on tumor growth: tumor growth was inhibited
A549 cells; [4]
  decrease in body weight: 28.1±1.2%
  survival: death of all mice within 11 days
